In patent US9834571B2, “Compounds for inhibiting cell proliferation in EGFR-driven cancers” (ARIAD Pharmaceuticals, Inc., priority 2012, dated 2017) one finds IC50 and GI50 data, which are given here for 15 compounds.

Assay [1] relates to BaF3 cells expressing wildtype EGFR. The assay can be described thus: Antiproliferative activity (MTT) against control BaF3 cells expressing wildtype EGFR. The format is cell-based. The settings on record: Mus musculus. In short, it runs like this: (§1)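 Viability by MTT colorimetry. Cells: BaF3 transfected with mutant EGFR, plus a wildtype-EGFR BaF3 counter-screen.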
Another assay deals with EGFR L858R/T790M (Homo sapiens, UniProt P00533, L858R/T790M). The assay can be described thus: Kinase inhibitory activity against EGFR bearing the L858R/T790M double mutation. The format is biochemical. Conditions: 10 μM ATP, read-out: IC50 for kinase inhibition, EGFR L858R T790M. Put shortly: (§2)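 Ten-point dose-response curves were run in singlicate from a 3 μM top concentration, with ATP at 10 μM.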
EGFR L858R/T790M, sequence (P00533 25-1210 T790M/L858R): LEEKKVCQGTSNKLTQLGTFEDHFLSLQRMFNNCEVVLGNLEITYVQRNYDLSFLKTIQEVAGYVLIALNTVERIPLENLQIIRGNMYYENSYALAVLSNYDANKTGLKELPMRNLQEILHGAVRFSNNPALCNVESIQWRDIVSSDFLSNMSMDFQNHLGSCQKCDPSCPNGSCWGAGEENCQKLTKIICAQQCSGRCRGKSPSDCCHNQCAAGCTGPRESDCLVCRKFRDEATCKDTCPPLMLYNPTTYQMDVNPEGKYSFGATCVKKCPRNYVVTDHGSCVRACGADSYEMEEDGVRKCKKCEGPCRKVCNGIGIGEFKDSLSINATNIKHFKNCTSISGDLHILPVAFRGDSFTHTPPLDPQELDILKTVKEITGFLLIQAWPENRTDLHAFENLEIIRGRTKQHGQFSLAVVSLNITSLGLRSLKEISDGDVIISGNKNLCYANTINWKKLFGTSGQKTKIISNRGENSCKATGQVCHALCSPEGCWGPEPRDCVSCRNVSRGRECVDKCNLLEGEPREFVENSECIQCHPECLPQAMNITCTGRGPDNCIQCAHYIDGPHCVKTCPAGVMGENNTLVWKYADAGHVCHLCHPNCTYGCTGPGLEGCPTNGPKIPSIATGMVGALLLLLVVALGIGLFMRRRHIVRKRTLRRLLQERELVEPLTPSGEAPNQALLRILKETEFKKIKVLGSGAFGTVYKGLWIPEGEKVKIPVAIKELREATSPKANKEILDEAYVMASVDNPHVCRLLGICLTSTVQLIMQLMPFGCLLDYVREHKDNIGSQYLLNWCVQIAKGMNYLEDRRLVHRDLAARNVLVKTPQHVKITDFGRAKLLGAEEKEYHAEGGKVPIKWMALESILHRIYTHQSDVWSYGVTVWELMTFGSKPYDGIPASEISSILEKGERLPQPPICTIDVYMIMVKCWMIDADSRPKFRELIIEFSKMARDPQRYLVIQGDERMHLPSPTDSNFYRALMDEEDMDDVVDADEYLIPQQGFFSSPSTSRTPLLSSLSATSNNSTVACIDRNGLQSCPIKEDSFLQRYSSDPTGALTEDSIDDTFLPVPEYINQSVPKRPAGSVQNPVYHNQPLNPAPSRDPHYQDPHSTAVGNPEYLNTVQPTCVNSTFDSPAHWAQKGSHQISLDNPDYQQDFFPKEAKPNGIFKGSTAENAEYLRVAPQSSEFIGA

Assay [2] has as its target T1, BaF3 cells expressing the target EGFR mutations (Homo sapiens, UniProt P00533, T790M, cells depend on it, form not given).
T1 construct: IC50, BAF3 EGFR DEL T790M PURO POOL; other: BAF3 EGFR DEL T790M PURO POOL cells, MTT; other: BAF3 EGFR DEL T790M PURO POOL cells; MTT
Kind of assay: Antiproliferative activity (MTT) against BaF3 cells expressing the target EGFR mutations. The format is cell-based. The settings on record: BAF3 EGFR DEL T790M PURO POOL cells, read-out: IC50, BAF3 EGFR DEL T790M PURO POOL. In short, it runs like this:
as §1

Assay [3] addresses T2, BaF3 cells expressing the target EGFR mutations (Homo sapiens, UniProt P00533, T790M/L858R, cells depend on it).
T2 construct: IC50, BAF3 EGFR L858R-T790M PURO POOL; other: BAF3 EGFR L858R-T790M PURO POOL cells, MTT; IC50, BAF3 EGFR L858R-T790M PURO POOL; other: BAF3 EGFR L858R-T790M PURO POOL cells; MTT
Described as above. The class given is cell-based. The settings on record: BAF3 EGFR L858R-T790M PURO POOL cells, read-out: IC50, BAF3 EGFR L858R-T790M PURO POOL. In short, it runs like this: as §1

Another assay addresses EGFR L858R (Homo sapiens, UniProt P00533, L858R). Kind of assay: Kinase inhibitory activity against EGFR bearing the L858R mutation. The class given is biochemical. Conditions: 10 μM ATP, read-out: IC50 for kinase inhibition, EGFR L858R. Put shortly: as §2
Assay [4] concerns the target human EGFR (native sequence) (Homo sapiens, UniProt P00533). Kind of assay: Kinase inhibitory activity against human EGFR (native sequence). The format is biochemical. The settings on record: 10 μM ATP, read-out: IC50 for kinase inhibition, EGFR. Put shortly:
as §2

Where [5] appears, read: EGFR L858R/T790M double mutation.
[6] abbreviates: 10 pt curves, 3 μM top concentration.

Like-named read-outs stand apart in the source and are kept apart here.

human EGFR (native sequence), sequence (P00533 25-1210): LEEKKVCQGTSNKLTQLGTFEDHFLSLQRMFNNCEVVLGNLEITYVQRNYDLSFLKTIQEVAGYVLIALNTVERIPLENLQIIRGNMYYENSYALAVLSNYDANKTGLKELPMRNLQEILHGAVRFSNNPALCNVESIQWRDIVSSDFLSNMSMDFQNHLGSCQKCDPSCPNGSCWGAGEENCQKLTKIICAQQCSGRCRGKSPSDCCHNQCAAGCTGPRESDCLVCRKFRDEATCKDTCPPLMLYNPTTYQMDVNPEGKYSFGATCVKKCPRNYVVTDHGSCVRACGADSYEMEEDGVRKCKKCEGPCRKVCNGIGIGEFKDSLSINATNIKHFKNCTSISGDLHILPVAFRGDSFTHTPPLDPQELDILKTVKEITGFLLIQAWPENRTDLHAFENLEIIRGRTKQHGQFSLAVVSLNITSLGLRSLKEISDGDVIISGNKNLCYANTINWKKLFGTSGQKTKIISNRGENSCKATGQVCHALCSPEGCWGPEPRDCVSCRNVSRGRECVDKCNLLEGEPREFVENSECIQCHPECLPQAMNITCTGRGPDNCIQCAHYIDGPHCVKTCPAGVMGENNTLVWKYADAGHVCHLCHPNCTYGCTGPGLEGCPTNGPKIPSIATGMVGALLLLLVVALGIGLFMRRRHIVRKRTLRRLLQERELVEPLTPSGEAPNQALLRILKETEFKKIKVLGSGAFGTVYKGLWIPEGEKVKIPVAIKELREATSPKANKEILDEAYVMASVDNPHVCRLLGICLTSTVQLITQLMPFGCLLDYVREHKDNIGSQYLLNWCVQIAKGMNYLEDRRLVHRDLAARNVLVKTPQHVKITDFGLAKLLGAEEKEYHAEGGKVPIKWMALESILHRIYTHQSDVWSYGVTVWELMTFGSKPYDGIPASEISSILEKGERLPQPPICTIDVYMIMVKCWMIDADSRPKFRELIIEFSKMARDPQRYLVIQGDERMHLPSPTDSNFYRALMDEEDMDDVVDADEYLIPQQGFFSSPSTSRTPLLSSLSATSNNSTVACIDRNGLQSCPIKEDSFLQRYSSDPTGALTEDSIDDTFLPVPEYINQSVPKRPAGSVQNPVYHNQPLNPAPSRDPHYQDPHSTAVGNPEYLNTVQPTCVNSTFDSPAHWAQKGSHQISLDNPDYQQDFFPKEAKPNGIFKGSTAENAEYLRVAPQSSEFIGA
T1 sequence (P00533 with tags, fused parts or gaps DEL746-750/T790M, form open): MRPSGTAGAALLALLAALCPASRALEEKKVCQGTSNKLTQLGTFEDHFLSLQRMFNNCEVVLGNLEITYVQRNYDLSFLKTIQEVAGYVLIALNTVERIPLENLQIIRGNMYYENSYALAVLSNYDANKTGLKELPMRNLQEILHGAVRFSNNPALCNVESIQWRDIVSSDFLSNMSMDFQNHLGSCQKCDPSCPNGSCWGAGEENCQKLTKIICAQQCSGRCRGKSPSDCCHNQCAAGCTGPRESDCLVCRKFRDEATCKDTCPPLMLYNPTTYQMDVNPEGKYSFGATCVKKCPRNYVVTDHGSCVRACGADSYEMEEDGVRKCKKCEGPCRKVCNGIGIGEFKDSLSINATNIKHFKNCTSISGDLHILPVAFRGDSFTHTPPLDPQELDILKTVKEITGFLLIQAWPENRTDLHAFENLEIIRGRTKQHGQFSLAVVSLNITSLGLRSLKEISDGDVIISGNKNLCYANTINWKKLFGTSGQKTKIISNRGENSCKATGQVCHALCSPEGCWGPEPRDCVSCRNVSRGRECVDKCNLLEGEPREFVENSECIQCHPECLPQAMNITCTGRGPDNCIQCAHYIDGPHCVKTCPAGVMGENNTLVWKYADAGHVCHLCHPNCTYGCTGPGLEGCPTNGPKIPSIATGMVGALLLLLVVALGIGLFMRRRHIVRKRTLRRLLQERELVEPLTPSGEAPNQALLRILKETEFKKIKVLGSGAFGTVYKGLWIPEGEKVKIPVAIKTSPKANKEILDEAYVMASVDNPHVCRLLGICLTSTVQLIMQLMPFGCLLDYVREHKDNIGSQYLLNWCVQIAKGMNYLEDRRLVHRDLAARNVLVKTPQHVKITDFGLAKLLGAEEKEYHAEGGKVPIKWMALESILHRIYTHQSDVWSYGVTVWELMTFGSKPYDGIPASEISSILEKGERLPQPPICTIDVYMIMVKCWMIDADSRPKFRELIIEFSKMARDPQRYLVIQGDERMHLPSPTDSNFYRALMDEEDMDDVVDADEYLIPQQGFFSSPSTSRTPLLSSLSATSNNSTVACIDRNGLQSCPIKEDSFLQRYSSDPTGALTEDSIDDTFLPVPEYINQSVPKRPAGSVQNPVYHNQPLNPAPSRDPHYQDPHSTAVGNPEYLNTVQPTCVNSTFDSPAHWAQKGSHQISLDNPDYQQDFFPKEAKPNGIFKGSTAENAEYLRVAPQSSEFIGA
T2 sequence (P00533 whole entry T790M/L858R): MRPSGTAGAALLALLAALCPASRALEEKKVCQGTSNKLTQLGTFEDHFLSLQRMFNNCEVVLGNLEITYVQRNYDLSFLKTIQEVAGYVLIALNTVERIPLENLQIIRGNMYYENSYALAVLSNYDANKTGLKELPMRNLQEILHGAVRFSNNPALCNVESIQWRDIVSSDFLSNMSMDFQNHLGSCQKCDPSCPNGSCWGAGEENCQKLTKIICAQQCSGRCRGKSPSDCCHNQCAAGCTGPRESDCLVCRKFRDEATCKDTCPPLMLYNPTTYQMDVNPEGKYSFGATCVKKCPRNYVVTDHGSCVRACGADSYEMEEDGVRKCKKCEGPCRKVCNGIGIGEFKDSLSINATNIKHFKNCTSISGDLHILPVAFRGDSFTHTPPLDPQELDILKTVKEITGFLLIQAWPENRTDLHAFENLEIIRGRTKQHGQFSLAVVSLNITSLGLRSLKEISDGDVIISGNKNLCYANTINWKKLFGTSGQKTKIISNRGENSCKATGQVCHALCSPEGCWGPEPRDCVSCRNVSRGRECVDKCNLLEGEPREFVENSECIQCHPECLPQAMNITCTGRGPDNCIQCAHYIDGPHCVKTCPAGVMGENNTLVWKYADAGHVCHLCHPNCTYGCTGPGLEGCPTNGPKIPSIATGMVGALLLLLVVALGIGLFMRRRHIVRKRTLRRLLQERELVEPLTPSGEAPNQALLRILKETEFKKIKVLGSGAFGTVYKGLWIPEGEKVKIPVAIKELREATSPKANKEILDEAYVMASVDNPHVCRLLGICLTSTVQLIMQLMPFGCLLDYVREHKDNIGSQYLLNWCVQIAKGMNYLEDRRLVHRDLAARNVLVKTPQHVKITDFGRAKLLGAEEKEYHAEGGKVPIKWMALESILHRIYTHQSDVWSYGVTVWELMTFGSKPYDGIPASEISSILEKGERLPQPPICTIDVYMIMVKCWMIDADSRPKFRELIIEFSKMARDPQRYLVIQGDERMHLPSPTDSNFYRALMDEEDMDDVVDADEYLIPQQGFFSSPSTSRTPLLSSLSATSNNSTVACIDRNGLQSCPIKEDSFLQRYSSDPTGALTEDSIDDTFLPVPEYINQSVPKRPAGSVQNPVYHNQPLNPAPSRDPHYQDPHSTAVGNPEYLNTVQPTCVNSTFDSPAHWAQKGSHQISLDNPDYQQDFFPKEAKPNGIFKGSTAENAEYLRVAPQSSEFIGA

Regarding `COc1cc(F)c(NC(=O)C#CC(C)(C)N2CCCC2)cc1Nc1ncc(Cl)c(Nc2ccccc2P(C)(C)=O)n1` [Example 90, N-(5-((5-chloro-4-((2-(dimethylphosphoryl)phenyl)amino)pyrimidin-2-yl)amino)-2-fluoro-4-methoxyphenyl)-4-methyl-4-(pyrrolidin-1-yl)pent-2-ynamide], the IC50 – broadly, the midpoint of a concentration-inhibition curve – in assay [1] (BAF3 PARENTAL cells (control)) was not below 250 nM; on EGFR L858R/T790M (setting [5]) it was less than 50 nM; on EGFR L858R (EGFR L858R) it was less than 50 nM; in assay [4] (human EGFR native sequence), less than 50 nM. Besides, the GI50 in assay [2] and in assay [3] was less than 50 nM throughout.

As for `C=CC(=O)Nc1cc(Nc2ncc(Cl)c(Nc3ccccc3P(C)(C)=O)n2)c(OC)cc1OCC1CCN(C)CC1` [Example 3, N-(5-((5-chloro-4-((2-(dimethylphosphoryl)phenyl)amino)pyrimidin-2-yl)amino)-4-methoxy-2-((1-methylpiperidin-4-yl)methoxy)phenyl)acrylamide], the 50% inhibitory concentration (IC50) in assay [1] (BAF3 PARENTAL cells (control)) is not below 250 nM; on EGFR L858R/T790M (setting [5]) it was less than 50 nM; at EGFR L858R (EGFR L858R), less than 50 nM; in assay [4] (human EGFR native sequence), 50 to 100 nM. The GI50 is 101 to 250 nM in assay [2] and not below 250 nM in assay [3].

As for `C=C(CN1CCC(N2CCOCC2)CC1)C(=O)Nc1ccc(OC)c(Nc2ncc(Cl)c(Nc3ccccc3P(C)(C)=O)n2)c1` [Example 51, N-(3-((5-chloro-4-((2-(dimethylphosphoryl)phenyl)amino)pyrimidin-2-yl)amino)-4-methoxyphenyl)-2-((4-morpholinopiperidin-1-yl)methyl)acrylamide], the IC50 in assay [1] (BAF3 PARENTAL cells (control)) was not below 250 nM; at EGFR L858R/T790M (setting [5]), less than 50 nM; on EGFR L858R (EGFR L858R), less than 50 nM; in assay [4] (human EGFR native sequence), less than 50 nM. The GI50 in assay [2] and in assay [3] was less than 50 nM throughout.

Regarding `C=CC(=O)Nc1cc(Nc2ncc(Cl)c(Nc3ccccc3P(C)(C)=O)n2)c(OC)cc1C` [Example 133, N-(5-((5-chloro-4-((2-(dimethylphosphoryl)phenyl)amino)pyrimidin-2-yl)amino)-4-methoxy-2-methylphenyl)acrylamide], the concentration for half-maximal inhibition (IC50) in assay [1] (BAF3 parental cells) was not below 250 nM; on EGFR L858R/T790M (setting [6]), less than 50 nM; at EGFR L858R (setting [6]) it was less than 50 nM; in assay [4] (setting [6]) it was less than 50 nM. The GI50 in assay [2] and in assay [3] was less than 50 nM each time.

For the compound `C=CC(=O)Nc1cc(Nc2ncc(Cl)c(Nc3ccccc3P(C)(C)=O)n2)c(OC)cc1OC1CCCN(CCOC)C1` (stereo not drawn) [Example 123, N-(5-((5-chloro-4-((2-(dimethylphosphoryl)phenyl)amino)pyrimidin-2-yl)amino)-4-methoxy-2-((1-(2-methoxyethyl)piperidin-3-yl)oxy)phenyl)acrylamide], the IC50 in assay [1] (BAF3 parental cells) was not below 250 nM; at EGFR L858R/T790M (setting [6]), less than 50 nM; on EGFR L858R (setting [6]) it was less than 50 nM; in assay [4] (setting [6]), less than 50 nM. For the same compound, the GI50 in assay [2] and in assay [3] was less than 50 nM in each case.

Consider `COc1ccc(NC(=O)C#CCN(C)C)cc1Nc1ncc(Cl)c(Nc2ccccc2P(C)(C)=O)n1` [Example 81, N-(3-((5-chloro-4-((2-(dimethylphosphoryl)phenyl)amino)pyrimidin-2-yl)amino)-4-methoxyphenyl)-4-(dimethylamino)but-2-ynamide], for which the IC50 was not below 250 nM in assay [1] (BAF3 PARENTAL cells (control)), less than 50 nM at EGFR L858R/T790M (setting [5]), less than 50 nM on EGFR L858R (EGFR L858R) and less than 50 nM in assay [4] (human EGFR native sequence). Further, the GI50 in assay [2] and in assay [3] was less than 50 nM in each case.

In the case of `C=CC(=O)Nc1cc(Nc2ncc(Cl)c(Nc3ccccc3P(C)(C)=O)n2)c(OC)cc1C#CCNC` [Example 160, N-(5-((5-chloro-4-((2-(dimethylphosphoryl)phenyl)amino)pyrimidin-2-yl)amino)-4-methoxy-2-(3-(methylamino)prop-1-yn-1-yl)phenyl)acrylamide], the IC50 in assay [1] (BAF3 parental cells) is not below 250 nM; at EGFR L858R/T790M (setting [6]), less than 50 nM; on EGFR L858R (setting [6]) it was less than 50 nM; in assay [4] (setting [6]), less than 50 nM. Also, the GI50 in assay [2] and in assay [3] was less than 50 nM each time.

Take `C=CC(=O)Nc1cc(Nc2ncc(Cl)c(Nc3ccccc3P(C)(C)=O)n2)c(OC)cc1C#CCN(C)CC` [Example 162, N-(5-((5-chloro-4-((2-(dimethylphosphoryl)phenyl)amino)pyrimidin-2-yl)amino)-2-(3-(ethyl(methyl)amino)prop-1-yn-1-yl)-4-methoxyphenyl)acrylamide]: the IC50 was not below 250 nM in assay [1] (BAF3 parental cells), less than 50 nM on EGFR L858R/T790M (setting [6]), less than 50 nM on EGFR L858R (setting [6]) and less than 50 nM in assay [4] (setting [6]). Moreover, the GI50 in assay [2] and in assay [3] was less than 50 nM throughout.

Take `CCOC(=O)/C=C/C(=O)Nc1ccc(OC)c(Nc2ncc(Cl)c(Nc3ccccc3P(C)(C)=O)n2)c1` [Example 75, (E)-ethyl 4-((3-((5-chloro-4-((2-(dimethylphosphoryl)phenyl)amino)pyrimidin-2-yl)amino)-4-methoxyphenyl)amino)-4-oxobut-2-enoate]: the IC50 in assay [1] (BAF3 PARENTAL cells (control)) is not below 250 nM; on EGFR L858R/T790M (setting [5]), less than 50 nM; at EGFR L858R (EGFR L858R), less than 50 nM; in assay [4] (human EGFR native sequence) it was less than 50 nM. Moreover, the GI50 in assay [2] and in assay [3] was less than 50 nM in each case.

For the compound `C=CC(=O)Nc1cc(Nc2ncc(Cl)c(Nc3ccccc3P(C)(C)=O)n2)c(OC)cc1C#CCN1CCCC1` [Example 157, N-(5-((5-chloro-4-((2-(dimethylphosphoryl)phenyl)amino)pyrimidin-2-yl)amino)-4-methoxy-2-(3-(pyrrolidin-1-yl)prop-1-yn-1-yl)phenyl)acrylamide], the concentration for half-maximal inhibition (IC50) was not below 250 nM in assay [1] (BAF3 parental cells), less than 50 nM on EGFR L858R/T790M (setting [6]), less than 50 nM at EGFR L858R (setting [6]) and less than 50 nM in assay [4] (setting [6]). In addition, the GI50 in assay [2] and in assay [3] was less than 50 nM in each case.

As to `C=CC(=O)Nc1cc(Nc2ncc(Cl)c(Nc3ccccc3P(C)(C)=O)n2)c(OC)cc1O[C@H]1CCCN(C)C1` (single isomer, unassigned) [Example 16], the IC50 was not below 250 nM in assay [1] (BAF3 PARENTAL cells (control)), less than 50 nM at EGFR L858R/T790M (setting [5]), less than 50 nM on EGFR L858R (EGFR L858R) and less than 50 nM in assay [4] (human EGFR native sequence). Moreover, the GI50 in assay [2] and in assay [3] was less than 50 nM in each case.

Take `CNC(=O)/C=C\C(=O)Nc1ccc(OC)c(Nc2ncc(Cl)c(Nc3ccccc3P(C)(C)=O)n2)c1` [Example 110, N1-(3-((5-chloro-4-((2-(dimethylphosphoryl)phenyl)amino)pyrimidin-2-yl)amino)-4-methoxyphenyl)-N4-methylmaleamide]: the half-inhibitory concentration (IC50) is not below 250 nM in assay [1] (BAF3 parental cells), less than 50 nM at EGFR L858R/T790M (setting [6]), less than 50 nM on EGFR L858R (setting [6]) and not below 250 nM in assay [4] (setting [6]). The values for the GI50 in assay [2] and in assay [3] were less than 50 nM and 101 to 250 nM, respectively.

In the case of `C=C(CN1CCNC(=O)C1)C(=O)Nc1ccc(OC)c(Nc2ncc(Cl)c(Nc3ccccc3P(C)(C)=O)n2)c1` [Example 47, N-(3-((5-chloro-4-((2-(dimethylphosphoryl)phenyl)amino)pyrimidin-2-yl)amino)-4-methoxyphenyl)-2-((3-oxopiperazin-1-yl)methyl)acrylamide], the IC50 in assay [1] (BAF3 PARENTAL cells (control)) was not below 250 nM; on EGFR L858R/T790M (setting [5]), less than 50 nM; on EGFR L858R (EGFR L858R), less than 50 nM; in assay [4] (human EGFR native sequence), less than 50 nM. Also, the figures for the GI50 in assay [2] and in assay [3] were 101 to 250 nM and not below 250 nM, respectively.

As to `COc1ccc(NC(=O)/C=C/Cl)cc1Nc1ncc(Cl)c(Nc2ccccc2P(C)(C)=O)n1` [Example 78, (E)-3-chloro-N-(3-((5-chloro-4-((2-(dimethylphosphoryl)phenyl)amino)pyrimidin-2-yl)amino)-4-methoxyphenyl)acrylamide], the IC50 in assay [1] (BAF3 PARENTAL cells (control)) is not below 250 nM; at EGFR L858R/T790M (setting [5]) it was less than 50 nM; at EGFR L858R (EGFR L858R), less than 50 nM; in assay [4] (human EGFR native sequence), less than 50 nM. Besides, the GI50 in assay [2] and in assay [3] was less than 50 nM each time.

As to `C=CC(=O)Nc1cc(Nc2ncc(Cl)c(Nc3ccccc3P(C)(C)=O)n2)c(OC)cc1N1CC[C@H](N(C)C)C1` (stereo in doubt) [Example 29, rac-(R)-N-(5-((5-chloro-4-((2-(dimethylphosphoryl)phenyl)amino)pyrimidin-2-yl)amino)-2-(3-(dimethylamino)pyrrolidin-1-yl)-4-methoxyphenyl)acrylamide], the 50% inhibitory concentration (IC50) in assay [1] (BAF3 PARENTAL cells (control)) is not below 250 nM; at EGFR L858R/T790M (setting [5]) it was less than 50 nM; on EGFR L858R (EGFR L858R), less than 50 nM; in assay [4] (human EGFR native sequence) it was less than 50 nM. Besides, the GI50 in assay [2] and in assay [3] was less than 50 nM in each case.
